Measurements: patent US6358688B1, “Immortalized human middle ear epithelial cell lines” (House Ear Institute, priority 1999, dated 2002)
One block for each molecule: values may come before it.

How the values were obtained:
[1] = system: HPV-transformed human middle ear epithelial cell line HMEEC-1; assay: G418 selection of cultured cells; type: cell-based; settings: G418 0.4 mg/ml, 2 and 7 days post addition
Description: (§1) Passage 3 human middle ear epithelial cell cultures (at 50-70% confluence) were infected with 1 ml of virus stock diluted in 9 ml of fresh SFM-HG for 48 hours. The virus was then removed and the medium was replaced with fresh SFM-HG. The cells were allowed to proliferate and once at 70% confluence, they were trypsinized and re-seeded in fresh SFM-HG medium containing G418 (Gibco-BRL, Gaithersburg, […].) at a concentration of 0.4 mg/ml.
(§2) Cells were photographed prior to selection, at 2 days and at 7 days post G418 addition (panels, a, b and c, respectively). […]

[2] = system: primary human middle ear epithelial cells; assay: G418 selection of cultured cells; type: cell-based; settings: 2 and 7 days post G418 addition
Description: as §1, §2

[3] = system: MUC2 mRNA; assay: RT-PCR of mucin mRNA expression after retinoic acid; type: cell-based, human; settings: primary cultures
Description: Polymerase chain reaction (PCR) assays were performed essentially following the package insert of the commercially available Gene-Amp kit (document No. 55635-6/89, available from Perkin-Elmer/Cetus, Emeryville, Calif.). The following reagents were mixed in a 0.5 mL polypropylene tube and used in performing PCR:
After mixing, the reaction mixture was overlayed with a drop of mineral oil to 30 cycles of PCR, with the following cycle profile: 30 second denaturation, 1 minute annealing and 2 minute extension. The PCR products were run on a 1.2% TAE agarose gel.
Expression of various genes was confirmed using the following PCR primers specific for: […]

[4] = system: MEK1/2 (MAPK kinase); assay: Assay for MEK (phospho-MEK1/2 antibody detection); type: cell-based, human; settings: HMEEC-1 cells treated for 5, 15 and 45 minutes
Description: Cells were treated with IL-1 alpha for 5, 15 and 45 minutes. The MEK assay was done according to the manufacturer's protocol (PhosphoPlus, MEK1/2 Antibody Kit; New England BioLabs, Beverly, Mass.). Antibodies specific to the phosphorylated (phospho-MEK1/2) and unphosphorylated (MEK1/2) MEK protein were used to distinguish between the phosphorylated and unphosphorylated forms of the protein.

Molecule: CN[C@@H]1[C@@H](O)[C@@H](O[C@@H]2[C@@H](O)[C@H](O[C@H]3O[C@H]([C@@H](C)O)[C@@H](O)[C@H](O)[C@H]3N)[C@@H](N)C[C@H]2N)OC[C@]1(C)O [G418]
Response of cells to G418 [1]: resistance
Response of cells to G418 [2]: sensitivity

Molecule: CC1=C(/C=C/C(C)=C/C=C/C(C)=C/C(=O)O)C(C)(C)CCC1 [Retinoic acid]
MUC2 expression in response to RA [3]: no effect

Activation (phosphorylation) of MEK1/2 [4]: activates
Molecule: IL-1 alpha: cytokine used to treat HMEEC-1 cells
